Where two headings read alike, the source gives them in different places.
How the values were obtained:
[1] = Biodistribution of 67Ga complexes in mice; assay type: in vivo, balb/c mice
Protocol: To ligand (50 μL, 10 mg/mL, 0.2 M NaOAc, […]) was added ^67 Ga citrate (18.5 MBq) and the resultant mixture diluted to 1 mL (0.2 M NaOAc, pH 7). The pH was adjusted to 12 with 1 M NaOH (20 μL) and heated at 40° C. for 40 min. The final volume was adjusted (to 5 mL) with saline and sterilised by filtering through a 0.22 μm filter.
Each animal was injected via tail vein with ^67 Ga complex (100 μL, ~3.7×10^5 Bq). Animals were sacrificed at various time intervals (5 animals per time point/6 time points). Data are illustrated in FIG. 26-30 and in Tables 13-17.
Each ^67 Ga-ligand complex has been evaluated in balb/c mice. […] (see FIG. 26-30).

[2] = Biodistribution of 99mTc complexes in rats; assay type: in vivo, Australian Albino Wistar Rats; settings: rats; for tissue uptake at 0.5 min / tissue uptake at 1 min / tissue uptake at 0.05 h / tissue uptake at 5 min / tissue uptake at 10 min: rat; for tissue uptake at 0.5 min: 30 sec
Protocol: A typical method of radiolabelling of the chelator was achieved by dissolving the chelator in a basic solution of saline. The pH was then adjusted to approx. 6 with HCl. Excess stannous chloride was added to the resultant solution followed by one equivalent volume of sodium ^99m TcO4 (10-50 mCi/ml). Final concentration of the chelator was approx. 1 mg/ml. The efficacy of labelling was determined by ITLC-SG. For each product only one main radiochemical species was observed. Each complex was diluted to 15 μCi/100 μl with saline. […] (See FIGS. 1A and 1B).
Selected data from biodistribution results of technetium-99m complexes of No. 1, No. 2 and No 4 in the liver, kidney and blood at 3 minutes is tabulated below.

[3] = blood, read-out: biodistribution blood
[4] = bone, read-out: biodistribution bone
[5] = brain, read-out: biodistribution brain
[6] = eyes, read-out: biodistribution eyes
[7] = heart, read-out: biodistribution heart
[8] = kidneys, read-out: biodistribution kidneys
[9] = liver, read-out: biodistribution liver
[10] = lungs, read-out: biodistribution lungs
[11] = muscle, read-out: biodistribution muscle
[12] = pancreas, read-out: biodistribution pancreas
[13] = skin, read-out: biodistribution skin
[14] = spleen, read-out: biodistribution spleen
[15] = stomach, read-out: biodistribution stomach
[16] = tail, read-out: biodistribution tail
[17] = thymus, read-out: biodistribution thymus
[18] = thyroid, read-out: biodistribution thyroid
[19] = total git, read-out: biodistribution tot GIT

Compound: O=C(O)CN(CCN(CC(=O)O)CC(=O)Nc1ccccc1O)CC(=O)Nc1ccccc1O [Compound 1]
- biodistribution bone ([1]; 1 min): 5.07 % ID
- biodistribution kidney ([1]; 1 min): 9.28 % ID
- biodistribution liver ([1]; 1 min): 15.45 % ID
- biodistribution muscle ([1]; 1 min): 22.75 % ID
- biodistribution skin ([1]; 1 min): 11.72 % ID
- biodistribution spleen ([1]; 1 min): 0.29 % ID
- biodistribution bone ([1]; 3 min): 3.30 % ID
- biodistribution kidney ([1]; 3 min): 5.26 % ID
- biodistribution liver ([1]; 3 min): 24.21 % ID
- biodistribution muscle ([1]; 3 min): 12.70 % ID
- biodistribution skin ([1]; 3 min): 13.76 % ID
- biodistribution spleen ([1]; 3 min): 0.14 % ID
- biodistribution bone ([1]; 5 min): 2.83 % ID
- biodistribution kidney ([1]; 5 min): 4.37 % ID
- biodistribution liver ([1]; 5 min): 25.79 % ID
- biodistribution muscle ([1]; 5 min): 12.14 % ID
- biodistribution skin ([1]; 5 min): 13.02 % ID
- biodistribution spleen ([1]; 5 min): 0.1 % ID
- biodistribution bone ([1]; 10 min): 2.20 % ID
- biodistribution kidney ([1]; 10 min): 1.91 % ID
- biodistribution liver ([1]; 10 min): 22.77 % ID
- biodistribution muscle ([1]; 10 min): 26.13 % ID
- biodistribution skin ([1]; 10 min): 8.47 % ID
- biodistribution spleen ([1]; 10 min): 0.06 % ID
- biodistribution bone ([1]; 30 min): 0.50 % ID
- biodistribution kidney ([1]; 30 min): 0.57 % ID
- biodistribution liver ([1]; 30 min): 10.11 % ID
- biodistribution muscle ([1]; 30 min): 1.80 % ID
- biodistribution skin ([1]; 30 min): 1.56 % ID
- biodistribution spleen ([1]; 30 min): 0.01 % ID
- biodistribution kidney ([1]; 120 min): 0.05 % ID
- biodistribution liver ([1]; 120 min): 0.88 % ID
- biodistribution muscle ([1]; 120 min): 0.48 % ID
- biodistribution skin ([1]; 120 min): 0.24 % ID
- biodistribution spleen ([1]; 120 min): 0.01 % ID
- tissue uptake at 0.5 min [2, 3]: 1.93 %ID/g
- tissue uptake at 1 min [2, 3]: 1.71 %ID/g
- tissue uptake at 0.05 h ([2]; blood, 3 minutes, selected data, read-out: Blood): 1.16 %ID/g
- tissue uptake at 5 min [2, 3]: 0.83 %ID/g
- tissue uptake at 10 min [2, 3]: 0.71 %ID/g
- tissue uptake at 0.5 min [2, 4]: 0.31 %ID/g
- tissue uptake at 1 min [2, 4]: 0.32 %ID/g
- tissue uptake at 0.05 h ([2]; bone, 3 min, read-out: biodistribution bone): 0.26 %ID/g
- tissue uptake at 5 min [2, 4]: 0.25 %ID/g
- tissue uptake at 10 min [2, 4]: 0.19 %ID/g
- tissue uptake at 0.5 min [2, 5]: 0.14 %ID/g
- tissue uptake at 1 min [2, 5]: 0.09 %ID/g
- tissue uptake at 0.05 h ([2]; brain, 3 min, read-out: biodistribution brain): 0.06 %ID/g
- tissue uptake at 5 min [2, 5]: 0.05 %ID/g
- tissue uptake at 10 min [2, 5]: 0.04 %ID/g
- tissue uptake at 0.5 min [2, 6]: 0.19 %ID/g
- tissue uptake at 1 min [2, 6]: 0.17 %ID/g
- tissue uptake at 0.05 h ([2]; eyes, 3 min, read-out: biodistribution eyes): 0.18 %ID/g
- tissue uptake at 5 min [2, 6]: 0.17 %ID/g
- tissue uptake at 10 min [2, 6]: 0.13 %ID/g
- tissue uptake at 0.5 min [2, 7]: 0.75 %ID/g
- tissue uptake at 1 min [2, 7]: 0.67 %ID/g
- tissue uptake at 0.05 h ([2]; heart, 3 min, read-out: biodistribution heart): 0.46 %ID/g
- tissue uptake at 5 min [2, 7]: 0.33 %ID/g
- tissue uptake at 10 min [2, 7]: 0.27 %ID/g
- tissue uptake at 0.05 h ([2]; kidney, 3 minutes, selected data, read-out: Kidney): 4.12 %ID/g
- tissue uptake at 0.5 min [2, 8]: 6.73 %ID/g
- tissue uptake at 1 min [2, 8]: 6.55 %ID/g
- tissue uptake at 0.05 h ([2]; kidneys, 3 min, read-out: biodistribution kidneys): 4.12 %ID/g
- tissue uptake at 5 min [2, 8]: 2.87 %ID/g
- tissue uptake at 10 min [2, 8]: 2.72 %ID/g
- tissue uptake at 0.5 min [2, 9]: 1.73 %ID/g
- tissue uptake at 1 min [2, 9]: 2.01 %ID/g
- tissue uptake at 0.05 h ([2]; liver, 3 minutes, selected data, read-out: Liver): 1.54 %ID/g
- tissue uptake at 5 min [2, 9]: 1.34 %ID/g
- tissue uptake at 10 min [2, 9]: 0.76 %ID/g
- tissue uptake at 0.5 min [2, 10]: 1.15 %ID/g
- tissue uptake at 1 min [2, 10]: 1.13 %ID/g
- tissue uptake at 0.05 h ([2]; lungs, 3 min, read-out: biodistribution lungs): 0.8 %ID/g
- tissue uptake at 5 min [2, 10]: 0.54 %ID/g
- tissue uptake at 10 min [2, 10]: 0.46 %ID/g
- tissue uptake at 0.5 min [2, 11]: 0.28 %ID/g
- tissue uptake at 1 min [2, 11]: 0.27 %ID/g
- tissue uptake at 0.05 h ([2]; muscle, 3 min, read-out: biodistribution muscle): 0.26 %ID/g
- tissue uptake at 5 min [2, 11]: 0.27 %ID/g
- tissue uptake at 10 min [2, 11]: 0.15 %ID/g
- tissue uptake at 0.5 min [2, 12]: 0.49 %ID/g
- tissue uptake at 1 min [2, 12]: 0.51 %ID/g
- tissue uptake at 0.05 h ([2]; pancreas, 3 min, read-out: biodistribution pancreas): 0.44 %ID/g
- tissue uptake at 5 min [2, 12]: 0.44 %ID/g
- tissue uptake at 10 min [2, 12]: 0.3 %ID/g
- tissue uptake at 0.5 min [2, 13]: 0.37 %ID/g
- tissue uptake at 1 min [2, 13]: 0.43 %ID/g
- tissue uptake at 0.05 h ([2]; skin, 3 min, read-out: biodistribution skin): 0.49 %ID/g
- tissue uptake at 5 min [2, 13]: 0.53 %ID/g
- tissue uptake at 10 min [2, 13]: 0.4 %ID/g
- tissue uptake at 0.5 min [2, 14]: 0.53 %ID/g
- tissue uptake at 1 min [2, 14]: 0.42 %ID/g
- tissue uptake at 0.05 h ([2]; spleen, 3 min, read-out: biodistribution spleen): 0.26 %ID/g
- tissue uptake at 5 min [2, 14]: 0.2 %ID/g
- tissue uptake at 10 min [2, 14]: 0.15 %ID/g
- tissue uptake at 0.5 min [2, 15]: 0.14 %ID/g
- tissue uptake at 1 min [2, 15]: 0.28 %ID/g
- tissue uptake at 0.05 h ([2]; stomach, 3 min, read-out: biodistribution stomach): 0.32 %ID/g
- tissue uptake at 5 min [2, 15]: 0.11 %ID/g
- tissue uptake at 10 min [2, 15]: 0.12 %ID/g
- tissue uptake at 0.5 min [2, 16]: 0.68 %ID/g
- tissue uptake at 1 min [2, 16]: 0.56 %ID/g
- tissue uptake at 0.05 h ([2]; tail, 3 min, read-out: biodistribution tail): 0.8 %ID/g
- tissue uptake at 5 min [2, 16]: 0.73 %ID/g
- tissue uptake at 10 min [2, 16]: 0.83 %ID/g
- tissue uptake at 0.5 min [2, 17]: 0.38 %ID/g
- tissue uptake at 1 min [2, 17]: 0.35 %ID/g
- tissue uptake at 0.05 h ([2]; thymus, 3 min, read-out: biodistribution thymus): 0.27 %ID/g
- tissue uptake at 5 min [2, 17]: 0.19 %ID/g
- tissue uptake at 10 min [2, 17]: 0.14 %ID/g
- tissue uptake at 0.5 min [2, 18]: 1.42 %ID/g
- tissue uptake at 1 min [2, 18]: 1.15 %ID/g
- tissue uptake at 0.05 h ([2]; thyroid, 3 min, read-out: biodistribution thyroid): 1.17 %ID/g
- tissue uptake at 5 min [2, 18]: 0.59 %ID/g
- tissue uptake at 10 min [2, 18]: 0.4 %ID/g
- tissue uptake at 0.5 min [2, 19]: 0.27 %ID/g
- tissue uptake at 1 min [2, 19]: 0.34 %ID/g
- tissue uptake at 0.05 h ([2]; total git, 3 min, read-out: biodistribution tot GIT): 0.59 %ID/g
- tissue uptake at 5 min [2, 19]: 0.79 %ID/g
- tissue uptake at 10 min [2, 19]: 1.22 %ID/g
- biodistribution blood ([2]; 3 min): 1.16 % Injected dose per gram
- biodistribution liver ([2]; 3 min): 1.54 % Injected dose per gram

— patent US5807535A, “Metal complexes of hydroxyaryl containing aminocarboxylic acid chelating agents” (Australian Nuclear Science & Technology Organisation, priority 1992, dated 1998)
